These results are taken from patent publication US20220175774A1, “Bioavailable Oral Dosage Form Of Tyrosine-Kinase Inhibitor” (Alembic Pharmaceuticals Limited, priority 2020, published 2022).

This series can be described thus: Stability study according to ICH guidelines. The class given is physicochemical.

Experimental: The total impurity content is measured after synthesis of the compound and compared with the measured total impurity content after storage for a designated period of time. […] Stability studies were conducted, according to the ICH guidelines, for 6 months at accelerated condition (40° C./75% RH) and at room temperature.

For `Cc1nc(Nc2ncc(C(=O)Nc3c(C)cccc3Cl)s2)cc(N2CCN(CCO)CC2)n1` [N-(2-chloro-6-methylphenyl)-2-[[6-[4-(2-hydroxyethyl)-1-piperazinyl]-2-methyl-4-pyrimidinyl]amino]-5-thiazolecarboxamide], the “total impurity content after storage” value (about 6 months at about 40° c. and about 75% RH) is reported as “less than 4%”. Further, the total impurity content entry (at 0 days) is “less than 3%”.
